Measured values: paper PMC10557102 (Pharmacology Research & Perspectives, 2023)
Where two headings read alike, the source gives them in different places.

Tests used:
[1] = biological target: T1, CYP2A6 (Homo sapiens, UniProt P11509); assay: Time-dependent; format: in vitro ADME; details: 30 min pre‐incubation with/without NADPH; coumarin 7‐hydroxylation
T1 sequence (P11509 1-494): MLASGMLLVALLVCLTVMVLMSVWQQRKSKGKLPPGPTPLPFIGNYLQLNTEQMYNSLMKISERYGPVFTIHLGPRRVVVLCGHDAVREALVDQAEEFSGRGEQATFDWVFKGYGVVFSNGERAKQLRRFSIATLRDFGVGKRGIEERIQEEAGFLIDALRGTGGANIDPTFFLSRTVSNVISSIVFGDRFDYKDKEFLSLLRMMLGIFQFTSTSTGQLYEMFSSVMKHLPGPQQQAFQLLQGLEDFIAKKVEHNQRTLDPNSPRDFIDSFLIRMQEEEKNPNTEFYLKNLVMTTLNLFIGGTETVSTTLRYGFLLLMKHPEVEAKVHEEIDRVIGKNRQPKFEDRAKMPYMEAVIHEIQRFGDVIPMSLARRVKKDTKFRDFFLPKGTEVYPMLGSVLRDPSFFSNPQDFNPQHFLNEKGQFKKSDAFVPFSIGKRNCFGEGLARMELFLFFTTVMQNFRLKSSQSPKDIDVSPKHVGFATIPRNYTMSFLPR

[2] = biological target: T2, CYP3A4 (Homo sapiens, UniProt P08684); assay: Time-dependent; format: in vitro ADME; details: for IC50 shift: 30 min pre‐incubation with/without NADPH
T2 sequence (P08684 whole entry): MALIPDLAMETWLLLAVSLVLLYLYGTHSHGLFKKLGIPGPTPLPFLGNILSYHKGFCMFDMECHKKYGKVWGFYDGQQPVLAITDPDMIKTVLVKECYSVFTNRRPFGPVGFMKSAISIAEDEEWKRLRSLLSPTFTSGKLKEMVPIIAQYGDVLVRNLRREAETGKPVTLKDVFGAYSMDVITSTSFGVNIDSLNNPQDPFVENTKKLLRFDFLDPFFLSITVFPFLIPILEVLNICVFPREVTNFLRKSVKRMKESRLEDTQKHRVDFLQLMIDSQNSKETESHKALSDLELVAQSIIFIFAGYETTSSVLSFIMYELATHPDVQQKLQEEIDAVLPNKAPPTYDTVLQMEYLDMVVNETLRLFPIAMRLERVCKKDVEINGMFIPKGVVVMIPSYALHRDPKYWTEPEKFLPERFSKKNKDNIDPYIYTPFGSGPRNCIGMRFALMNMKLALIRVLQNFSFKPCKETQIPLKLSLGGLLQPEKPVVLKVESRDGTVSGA

[3] = biological target: T3, CYP2C9 (Homo sapiens, UniProt P11712); assay: Competitive; format: in vitro ADME
T3 sequence (P11712 whole entry): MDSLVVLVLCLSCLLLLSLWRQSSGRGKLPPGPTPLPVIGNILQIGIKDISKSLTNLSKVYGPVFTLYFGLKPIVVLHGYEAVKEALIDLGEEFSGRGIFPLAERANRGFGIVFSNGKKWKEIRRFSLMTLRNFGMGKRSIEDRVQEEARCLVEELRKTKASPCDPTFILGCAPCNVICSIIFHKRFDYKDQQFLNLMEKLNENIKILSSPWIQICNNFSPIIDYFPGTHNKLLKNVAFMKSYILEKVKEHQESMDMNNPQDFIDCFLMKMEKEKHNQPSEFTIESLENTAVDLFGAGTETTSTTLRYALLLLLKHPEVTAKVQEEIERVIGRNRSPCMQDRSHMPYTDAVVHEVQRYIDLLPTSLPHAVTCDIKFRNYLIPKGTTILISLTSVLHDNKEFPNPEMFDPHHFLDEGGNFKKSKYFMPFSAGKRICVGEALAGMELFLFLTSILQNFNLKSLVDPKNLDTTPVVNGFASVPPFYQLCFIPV

[4] = biological target: T4, CYP2C8 (Homo sapiens, UniProt P10632); assay: Competitive; format: in vitro ADME
T4 sequence (P10632 1-490): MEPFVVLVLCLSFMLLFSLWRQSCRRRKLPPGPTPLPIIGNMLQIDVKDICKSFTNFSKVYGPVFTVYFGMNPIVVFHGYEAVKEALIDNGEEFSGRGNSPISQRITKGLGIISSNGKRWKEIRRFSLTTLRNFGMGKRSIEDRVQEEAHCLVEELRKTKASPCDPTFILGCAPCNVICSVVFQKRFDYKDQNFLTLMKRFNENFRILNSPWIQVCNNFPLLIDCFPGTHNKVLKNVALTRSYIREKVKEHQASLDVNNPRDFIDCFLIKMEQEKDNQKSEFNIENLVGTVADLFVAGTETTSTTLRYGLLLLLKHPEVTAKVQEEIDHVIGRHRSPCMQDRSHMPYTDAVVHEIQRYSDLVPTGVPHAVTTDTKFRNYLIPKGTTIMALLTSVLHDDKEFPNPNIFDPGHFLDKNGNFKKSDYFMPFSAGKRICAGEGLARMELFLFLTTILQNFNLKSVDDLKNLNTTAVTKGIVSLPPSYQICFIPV

[5] = biological target: T5, CYP2C19 (Homo sapiens, UniProt P33261)
T5 sequence (P33261 whole entry): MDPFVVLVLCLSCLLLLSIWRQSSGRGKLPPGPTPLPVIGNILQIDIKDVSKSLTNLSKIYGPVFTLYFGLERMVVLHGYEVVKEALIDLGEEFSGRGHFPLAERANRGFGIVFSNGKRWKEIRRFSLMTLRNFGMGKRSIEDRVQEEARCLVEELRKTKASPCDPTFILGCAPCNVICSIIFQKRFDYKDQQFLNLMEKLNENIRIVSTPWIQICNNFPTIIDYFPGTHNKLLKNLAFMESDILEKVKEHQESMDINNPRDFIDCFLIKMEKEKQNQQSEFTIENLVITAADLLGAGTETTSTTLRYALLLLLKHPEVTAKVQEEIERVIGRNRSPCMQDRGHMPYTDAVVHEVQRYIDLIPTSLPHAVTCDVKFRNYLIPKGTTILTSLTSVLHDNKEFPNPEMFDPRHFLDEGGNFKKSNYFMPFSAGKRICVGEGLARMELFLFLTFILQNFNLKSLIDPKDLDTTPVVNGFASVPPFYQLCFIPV

[6] = biological target: T2, CYP3A4; assay: Competitive; format: in vitro ADME
[7] = system: CYP2C9
[8] = biological target: T3, CYP2C9; assay: Covalent binding; format: in vitro ADME
[9] = system: human OX1R; details: OX1R vs OX2R; cited from earlier work
[10] = biological target: T4, CYP2C8; assay: Time-dependent; format: in vitro ADME; details: 30 min pre‐incubation with/without NADPH; paclitaxel 6α‐hydroxylation
[11] = cited from earlier work
[12] = system: CYP2C9; assay: Time-dependent; format: in vitro ADME, human; details: 30 min pre‐incubation with/without NADPH; diclofenac 4′‐hydroxylation
[13] = biological target: CYP2D6 (Homo sapiens, UniProt P10635); assay: Competitive; format: in vitro ADME
Sequence of CYP2D6 (P10635 whole entry): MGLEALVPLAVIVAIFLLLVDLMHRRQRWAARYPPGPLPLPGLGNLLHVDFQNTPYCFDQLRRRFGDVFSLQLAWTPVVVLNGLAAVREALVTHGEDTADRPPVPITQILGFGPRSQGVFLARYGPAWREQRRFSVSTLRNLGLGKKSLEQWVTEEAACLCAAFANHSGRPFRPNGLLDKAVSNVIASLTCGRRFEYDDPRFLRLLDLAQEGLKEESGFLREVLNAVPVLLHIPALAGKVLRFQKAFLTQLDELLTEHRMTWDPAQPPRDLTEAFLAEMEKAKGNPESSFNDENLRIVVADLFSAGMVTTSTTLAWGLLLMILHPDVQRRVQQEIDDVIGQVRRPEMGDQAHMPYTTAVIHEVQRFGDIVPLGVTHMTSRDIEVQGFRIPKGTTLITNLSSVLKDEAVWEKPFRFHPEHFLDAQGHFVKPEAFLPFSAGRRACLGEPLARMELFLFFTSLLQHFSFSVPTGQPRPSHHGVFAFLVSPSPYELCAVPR

[14] = biological target: T5, CYP2C19; assay: biochemical; format: in vitro ADME
[15] = biological target: T1, CYP2A6; assay: Competitive; format: in vitro ADME
[16] = biological target: T6, CYP2B6 (Homo sapiens, UniProt P20813); assay: Time-dependent; format: in vitro ADME; details: 30 min pre‐incubation with/without NADPH; bupropion hydroxylation
T6 sequence (P20813 1-491): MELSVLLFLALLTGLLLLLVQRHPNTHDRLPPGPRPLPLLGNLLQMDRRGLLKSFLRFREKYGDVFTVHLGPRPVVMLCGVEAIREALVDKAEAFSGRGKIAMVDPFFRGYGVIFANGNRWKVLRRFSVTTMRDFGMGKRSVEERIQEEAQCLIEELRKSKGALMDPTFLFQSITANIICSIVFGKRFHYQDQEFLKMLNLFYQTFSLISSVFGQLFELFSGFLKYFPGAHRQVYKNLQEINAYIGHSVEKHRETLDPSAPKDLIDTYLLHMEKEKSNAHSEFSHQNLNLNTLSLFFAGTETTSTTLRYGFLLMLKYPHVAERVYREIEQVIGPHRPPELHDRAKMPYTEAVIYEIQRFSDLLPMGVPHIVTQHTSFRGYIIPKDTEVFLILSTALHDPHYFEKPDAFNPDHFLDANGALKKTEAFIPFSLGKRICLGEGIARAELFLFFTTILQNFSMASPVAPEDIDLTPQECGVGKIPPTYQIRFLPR

[17] = biological target: T2, CYP3A4; assay: Covalent binding; format: in vitro ADME
[18] = biological target: T6, CYP2B6; assay: Competitive; format: in vitro ADME
[19] = biological target: T5, CYP2C19; assay: Covalent binding; format: in vitro ADME; details: data not shown
[20] = after 8 days / repeated 100 mg b.i.d., steady state

Cc1ccc(C(=O)N2CCOC[C@H]2Cc2cccc(-n3nccn3)c2)c(-n2nccn2)c1 [nivasorexant]
IC50 shift [1]: none | IC50 shift ([2]; midazolam 1′‐hydroxylation): none | IC50 shift ([2]; testosterone 6β‐hydroxylation): none | effect of pre‐incubation on CYP3A4 activity (in words, probe not stated) ([2]; time‐dependent inhibition assay): no pre‐incubation effect | IC50 [3]: 8.6 µM | Ki [3]: 5 µM | IC50 [4]: 25 µM | CYP2C19 inhibitor classification according to regulatory guidance ([5]; after 1 day of 100 mg b.i.d.): moderate (≥ 2‐ to <5‐fold) | CYP2C19 inhibitor classification according to regulatory guidance [5, 20]: strong (≥5‐fold) | IC50 [6]: 44 µM | IC50 ([6]; IC50 (range over both probe substrates), midazolam and testosterone as probes): 19 to 44 µM | IC50 ([6]; IC50, human liver microsomes, midazolam 1′‐hydroxylation): 19 µM | CYP2C9 inhibitor classification according to regulatory guidance [7, 20]: weak (≥1.25‐ to <2‐fold) | perpetrator DDI potential with respect to CYP2C9 (in words) ([7]; initial administration on Day 8, 90% CIs of GMR within 0.8–1.25): lack of perpetrator DDI potential | covalent binding (in words) [8]: covalent binding | higher potency at human OX1R than at human OX2R [9]: approximately 60 fold | IC50 shift [10]: no effect and none | apparent mean terminal half‐life (t ½) ([11]; across dose levels, healthy subjects): 3.3 to 6.5 h | dose proportionality of AUCτ ([11]; multiple oral administration): dose proportional | dose proportionality of C max ([11]; multiple oral administration): less than dose proportional | IC50 shift [12]: no effect and no pre‐incubation effect and none | IC50 [13]: > 100 µM | IC50 [14]: 1.6 µM | IC50 [15]: > 100 µM | IC50 shift [16]: none | covalent binding (in words) [17]: covalent binding | IC50 [18]: > 100 µM | covalent binding (in words) [19]: covalently binds
